Measurements published in ChEMBL document CHEMBL1201862, “PubChem BioAssay data set” (2004).
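Results reflect a 48-hour exposure of cells in 96-well plates to compound at five concentrations. Here, GI50 denotes the concentration required for 50% inhibition of growth.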 Calls of active or inactive are those of the source. Rule as the data show it: active = GI50 up to about 1.1 µM and inactive = higher.

Experiments:
Assay in all cases: NCI-60 cell line screen, 48 h
786-0 = system: 786-0
MDA-N = system: MDA-N
SW-620 = system: SW-620
UACC-257 = system: UACC-257
MDA-MB-231 = system: MDA-MB-231
IGROV-1 = system: IGROV-1
A498 = system: A498
UO-31 = system: UO-31
SF-295 = system: SF-295
M14 = system: M14
A549 = system: A549
OVCAR-3 = system: OVCAR-3
K562 = system: K562
HL-60 = system: HL-60
CCRF-CEM = system: CCRF-CEM
HCC 2998 = system: HCC 2998
OVCAR-5 = system: OVCAR-5
OVCAR-8 = system: OVCAR-8
NCI-H226 = system: NCI-H226
ACHN = system: ACHN

Measured: GI50

O=S(=O)(O)c1ccc2c(/N=N\c3cccc4ccccc34)c(O)c(S(=O)(=O)O)cc2c1
inactive: 786-0 > 100 µM | MDA-N > 100 µM | SW-620 > 100 µM | UACC-257 > 100 µM | MDA-MB-231 > 100 µM | IGROV-1 > 100 µM | A498 > 100 µM | UO-31 > 100 µM | SF-295 > 100 µM | M14 > 100 µM | A549 > 100 µM | OVCAR-3 > 100 µM | K562 > 100 µM | HL-60 > 100 µM | CCRF-CEM > 100 µM | HCC 2998 > 100 µM | OVCAR-5 > 100 µM | OVCAR-8 > 100 µM | NCI-H226 > 100 µM | ACHN > 100 µM

N#Cc1c(-c2ccccc2)[nH]c2ccccc2c1=O
inactive: 786-0 > 100 µM | MDA-N 33.4 µM | SW-620 91 µM | UACC-257 > 100 µM | MDA-MB-231 26.2 µM | IGROV-1 23.9 µM | A498 > 100 µM | UO-31 > 10 µM | SF-295 21.8 µM | M14 > 100 µM | A549 9.59 µM | OVCAR-3 83.6 µM | K562 59.4 µM | HL-60 90.4 µM | CCRF-CEM > 100 µM | HCC 2998 > 10 µM | OVCAR-5 > 100 µM | OVCAR-8 97.9 µM | NCI-H226 41.6 µM | ACHN > 100 µM

O=S(=O)(O)c1cc(O)c2c(/N=C\c3ccccc3O)cc(S(=O)(=O)O)cc2c1
inactive: 786-0 > 100 µM | MDA-N > 100 µM | SW-620 > 100 µM | UACC-257 > 100 µM | MDA-MB-231 > 100 µM | IGROV-1 > 100 µM | A498 > 100 µM | UO-31 > 100 µM | SF-295 > 100 µM | M14 > 100 µM | A549 > 100 µM | OVCAR-3 > 100 µM | K562 86.5 µM | HL-60 57.9 µM | CCRF-CEM > 100 µM | HCC 2998 > 100 µM | OVCAR-5 > 100 µM | OVCAR-8 > 100 µM | NCI-H226 > 100 µM | ACHN > 100 µM

O=C(c1ccccc1)C(C(=O)c1ccccc1)c1nc2ccccc2sc1=O
inactive: 786-0 12.1 µM | MDA-N > 25 µM | SW-620 15.9 µM | UACC-257 > 25 µM | MDA-MB-231 11.6 µM | IGROV-1 8.11 µM | A498 > 25 µM | UO-31 10.4 µM | SF-295 10.1 µM | M14 15.8 µM | A549 8.91 µM | OVCAR-3 > 25 µM | K562 12 µM | HL-60 > 25 µM | CCRF-CEM 6.24 µM | HCC 2998 23.7 µM | OVCAR-5 > 25 µM | OVCAR-8 9.29 µM | NCI-H226 7.08 µM | ACHN 9.84 µM

CC(=O)OC1C[C@@H](C)C2(CC(c3ccoc3)OC2=O)C2CCC(O)C3(CO3)C12CO (stereo not given in full)
inactive: 786-0 > 100 µM | MDA-N > 100 µM | SW-620 > 100 µM | UACC-257 > 100 µM | MDA-MB-231 > 100 µM | IGROV-1 > 100 µM | A498 > 100 µM | UO-31 > 100 µM | SF-295 > 100 µM | M14 > 100 µM | A549 > 100 µM | OVCAR-3 > 100 µM | K562 > 100 µM | HL-60 > 100 µM | CCRF-CEM > 100 µM | HCC 2998 > 100 µM | OVCAR-5 > 100 µM | OVCAR-8 > 100 µM | NCI-H226 > 100 µM | ACHN > 100 µM

O=C1OC(=O)C(=C\c2ccc3c(c2)OCO3)/C1=C/c1ccc2c(c1)OCO2
inactive: 786-0 > 100 µM | MDA-N > 100 µM | SW-620 > 100 µM | UACC-257 > 100 µM | MDA-MB-231 > 100 µM | IGROV-1 > 100 µM | A498 > 100 µM | UO-31 > 100 µM | SF-295 > 100 µM | M14 > 100 µM | A549 37.9 µM | OVCAR-3 > 100 µM | K562 > 79.8 µM | HL-60 44.8 µM | CCRF-CEM 25.9 µM | HCC 2998 > 100 µM | OVCAR-5 > 100 µM | OVCAR-8 > 84.5 µM | NCI-H226 > 93.5 µM | ACHN > 100 µM

c1ccc2c(c1)NC1(N3CCCCC3)CCCCC21 (stereo not given)
inactive: 786-0 61 µM | MDA-N 28.1 µM | SW-620 41.2 µM | UACC-257 47.3 µM | MDA-MB-231 34.2 µM | IGROV-1 28.2 µM | A498 32.8 µM | UO-31 51.9 µM | SF-295 45.4 µM | M14 55.3 µM | A549 30.5 µM | OVCAR-3 41.7 µM | K562 38.8 µM | HL-60 29.6 µM | CCRF-CEM 32.4 µM | HCC 2998 76.4 µM | OVCAR-5 35.2 µM | OVCAR-8 63.2 µM | NCI-H226 52.4 µM | ACHN 47.1 µM

CCCOc1ccc(/C=C/C2=[N+](CCO)CCO2)cc1
inactive: 786-0 > 100 µM | MDA-N > 100 µM | SW-620 > 100 µM | UACC-257 > 100 µM | MDA-MB-231 > 100 µM | IGROV-1 > 100 µM | A498 > 100 µM | UO-31 > 100 µM | SF-295 > 100 µM | M14 > 100 µM | A549 > 100 µM | OVCAR-3 > 100 µM | K562 > 100 µM | HL-60 > 100 µM | CCRF-CEM > 100 µM | HCC 2998 > 100 µM | OVCAR-5 > 100 µM | OVCAR-8 > 100 µM | NCI-H226 > 100 µM | ACHN > 100 µM
